Measurements: patent US20250129033A1, “METAP2 INHIBITORS AND USES THEREOF” (Yissum Research Development Company of the Hebrew …, priority 2022, published 2025)
Entries after “also recorded” stand apart in the source; their conditions may differ.

Key:
HUVECs = test: Endothelial tube formation assay; format: cell-based, human; conditions: 12 h
Description: To evaluate the angiogenic effect of AD-3281, an endothelial tube formation assay was performed. HUVECs were kept in serum-free Dulbecco's modified Eagle's medium media, collected, seeded in 0.1% gelatin coated 96-well plate and monitored for 12 h using a microscope. Images were taken from 6 separated wells and analyzed using Incucyte® Live-Cell Analysis Systems.

ERG study in mice = format: in vivo; conditions: Low dose 12 μg per eye and High dose 48 μg per eye
MDA-MB-231 xenograft = MDA-MB-231 xenograft in mice; format: in vivo, Foxn1 nu mice
Description: Animal studies were approved by the Institutional Animal Care and Use Committee of the Faculty of Medicine of the Hebrew University and followed the guidelines for use of laboratory animals. 6-8-week-old male Foxn1 nu mice were S.C. injected with 5×10^6 A375 and MDA-MB-231 cells/mouse. Mice were I.P treated with 30 mg/kg and 15 mg/kg AD-3281 every other day and with 15 mg/kg, 7.5 mg/kg AD-3281 every other day in mice injected with A375 and MDA-MB-231 respectively. Tumor growth was measured with a digital caliper. At the end of the experiments after 18 or 15 days, mice were sacrificed, and tumors were surgically removed, weighed, volume was measured and histology stating was performed. AD-3281 was dissolved in 10:10:80 […]:ethanol:saline.
Animal studies were approved by the Institutional Animal Care and Use Committee of the Faculty of Medicine of the Hebrew University and followed the guidelines for use of laboratory animals. 6-8-week-old male Foxn1 nu mice were S.C. injected with 5×10^6 A375 or MDA-MB-231 cells/mouse. Mice were I.P treated with 30 mg/kg and 15 mg/kg AD-3281 q.o.d and with 15 mg/kg, 7.5 mg/kg AD-3281 (dissolved in 10:10:80 Cremophor EL: Ethanol: Saline) q.o.d in mice injected with A375 and MDA-MB-231 respectively. Tumor growth was measured with a digital caliper. At the end of the experiments after 18 or 15 days, mice were sacrificed, and tumors were surgically removed, weighed, volume was measured and histology stating was performed. Tumor tissues were resected at the end point and analyzed by immunohistology using standard protocol for paraffin fixed sections using anti-Ki-67 (Abcam, catalog number ab15580), anti-CD31 (Abcam, catalog number ab28364), anti-MetAp-2 (Ab134124, Abcam, Cambridge, UK) (Figure S.

A375 cells = test: A375 proliferation assay (MTT); format: cell-based, human; conditions: 1-100 μM, 72 h, dose-dependent
Description: Human Umbilical Vein Endothelial Cells (HUVECs) or human melanoma cell line (A375) were used to validate the ability of the compound to suppress endothelial cell proliferation. Each 1500 A375 cells/well or 2000 HUVEC cells/well were seeded in a 96 wells plate and allowed to adhere to the plate for few hours. Compounds were then added to the cells at concentration range of 0.05-10 μM (<0.1% DMSO). Cells were then incubated for additional 72 hours and MTT was done (2 to 3 h at 37° C.). The dye was solubilized with DMSO and the absorbance was determined at 570 nm.
A375 were seeded (2000 cells/well) exposed to TNP-470 and to arrange concentrations of AD-3281 (1-100 μM) cells were incubated for 72 h at 37° C., After incubation, MTT (Sigma Aldrich, St. Louis City, MO, USA) was added (0.5 mg/mL) into each well for viability detection and incubated at 37° C. and 5% CO2 for 40 minutes. The absorbance was measured at 540 nm using a plate reader (Wallac 1420 VICTOR plate reader, Perkin-Elmer Life Sciences, USA). The proliferation of HUVECs was measured under the same conditions. HUVECs were seeded (3000 cells/well) in 96-well plates […]

With COC1C(OC(=O)CC23CC4CC(CC(C4)C2)C3)CCC2(CO2)C1C1(C)OC1CC=C(C)C (stereo not shown) [AD-3281, Fumagillol-1-adamantylacetate] the HUVEC tube formation (HUVECs; 50 μM) was “narrower tubes compared with untreated control but without preventing network formation”, the HUVEC tube formation (HUVECs; 100 μM) was “impaired tubes; also recorded: prevent tube formation” and the “damage to vision (ERG)” value (ERG study in mice) was “no damage to vision”. The “mean weight of extracted tumors” value (MDA-MB-231 xenograft; 7.5 mg/kg q.o.d (untreated 1 g)) was 0.05 g, the tumor volume inhibition (MDA-MB-231 xenograft; 7.5 mg/kg q.o.d, after 15 days) was 97% and the “mean weight of extracted tumors” value (MDA-MB-231 xenograft; 15 mg/kg q.o.d (untreated 1 g)) was 0.001 g. The “tumors that seemed completely eradicated” value (MDA-MB-231 xenograft; 15 mg/kg q.o.d, after 15 days, n=4) was 3 tumors, the systemic adverse effects (MDA-MB-231 xenograft; all treated mice) was “no signs of systemic adverse effects” and the “weight loss (>10%)” value (MDA-MB-231 xenograft; all treated mice) was “not weight loss was detected”. For the same compound, the “reduction in A375 cancer cell proliferation” value (A375 cells) was 37-63%.
